Columns and labels:
Format in all cases: in vivo, mouse
Fmr1 KO2 mice = test: Open field repetitive behavior: stereotypy count, Fmr1 KO2 mice
Text: (§1) Mutant fmr1 knockout (KO) mice recapitulate the Fragile X syndrome (FXS) phenotype and represent a preclinical model for assessment of putative drug treatments. In this study three different mice models of FXS were used: Fmr1 KO1 is the original Fmr1 knockout animal that carries an insertion in exon 5. See, e.g., Bakker C E, et al., The Dutch-Belgian Fragile X Consortium, Fmr1 knockout mice: A model to study fragile X mental retardation. Cell. 1994; 78:23-33 It is a protein null, although Fmr1 mRNA is still present. It is backcrossed to the C57/B16 strain. Subsequently, these mice were bred into different background strains, such as the FVB inbred mouse strain. Fmr1 KO2 is a null allele at Fmr1 generated by deletion of the promoter and first exon of Fmr1. See, Mientjes, E J et al., The generation of a conditional Fmr1 knock out mouse model to study Fmrp function in vivo. Neurobiology of Disease (2006) 21(3): 549-555. It is both protein and mRNA null. Backcrossed to the C57/B16 strain. Genotyping was accomplished using TransnetXY Automated Genotyping (http://www.transnetyx.com/). TRANSNETYX, INC., 8110 Cordova Rd. Suite 119, Cordova, TN 38016, USA.
(§2) The mice were housed in plastic cages (35×30×12 cm), 5 in each and habituated to the animal facilities for at least a week before test. The room temperature (21±2° C.), relative humidity (55±5%), a 12-h light-dark cycle (lights on 7 a.m.-7 p.m.) and air exchange (16 times per h) were automatically controlled. The animals had free access to commercial food pellets and water. Testing was conducted during the light phase. Testing was conducted on Fmr1 knockout mice and their wild-type (WT) littermates. Ten mice per treatment group, 14 weeks of age, were used for behavioral experiments. Experiments were conducted in line with the requirements of the UK Animals (Scientific Procedures) Act, 1986.
(§3) Oral dosing was performed by using 1.5-in. curved, 20-gauge, stainless steel feeding needles with a 2.25-mm ball (Braintree Scientific, Braintree, MA). Each gavage treatment was given in 0.5% methyl cellulose (Methyl Cellulose M0512, Sigma-Aldrich, St Louis, MO) used as vehicle with or without treatment compounds. The same veterinarian, blinded to the treatment groups, performed the procedure, and documented animal reactions to oral gavage. Reactions considered to indicate stress were defined as excessive struggling during gavage or abnormal behavior after gavage (labored breathing, frozen stance, exaggerated jumping, shuddering, and hunched posture).
(§4) For experiments all mice were tested once in the same apparatus. Prior to testing, mice not in the study were placed in the apparatus for some minutes before the experiment. The apparatus was then cleaned with moist and dry tissues before testing each mouse. The aim was to create a low but constant background mouse odor for all experimental subjects. All experiments were conducted with the experimenters blind to genotype and drug treatment during all testing and data analysis. Separate investigators prepared and coded dosing solutions, allocated the mice to the study treatment groups, dosed the animals, and collected the behavioral data. Data were analyzed by one-way analysis of variance (ANOVA) followed by post-hoc comparisons where appropriate using Tukey's Multiple Comparison Test. Data are represented as the mean and standard error of the mean (SEM).
2. Open Field Repetitive Behaviors (stereotypies: anticlockwise circling (aka counter revolutions) (CCW) and self grooming). Fmr1 KO2 mice display the autism-like phenotypes of repetitive behaviors like CCW, self grooming and stereotypy that typically involves behaviors such as head bobbing.
C. […]

Fmr1 KO1 mice [1] = test: Open field hyperactivity (locomotor activity), Fmr1 KO1 mice
Text: as §1, §2, §3, §4
1. […]

Fmr1 KO1 mice [2] = test: Open field repetitive behavior: stereotypy count, Fmr1 KO1 mice
Text: as §1, §2, §3, §4
2. Open Field Repetitive Behaviors (RB) (stereotypies: anticlockwise circling and self grooming). Fmr1 KO1 mice display the autism-like phenotypes of repetitive behaviors like counter revolutions (CCW), self grooming and stereotypy that typically involves behaviors such as head bobbing.
C. […]

Fmr1 KO1 mice [3] = test: Tests of daily living (nesting), Fmr1 KO1 mice
Text: as §1, §2, §3, §4
3. Tests of daily living (Nesting): FIG. 11 is a bar graph illustrating nest building quality by wild-type mice administered 0.5% methyl cellulose vehicle, Fmr1 KO1 mice administered 0.5% methyl cellulose, Fmr1 KO1 mice administered (S)-3-amino-4-(difluoromethylenyl) cyclopent-1-ene-1-carboxylic acid 0.01 mg/kg, Fmr1 KO1 mice administered (S)-3-amino-4-(difluoromethylenyl) cyclopent-1-ene-1-carboxylic acid 0.05 mg/kg, and Fmr1 KO1 mice administered (S)-3-amino-4-(difluoromethylenyl) cyclopent-1-ene-1-carboxylic acid 0.1 mg/kg.

N[C@H]1C=C(C(=O)O)CC1=C(F)F [Compound, (S)-3-Amino-4-(difluoromethylenyl)cyclopent-1-ene-1-carboxylic acid]
Stereotypy count, WT-Veh vs. KO2-Compound: Significant? (Fmr1 KO2 mice; 0.01 mg/Kg PO QD seven days): Yes
Stereotypy count, WT-Veh vs. KO2-Compound: Significant? (Fmr1 KO2 mice; 0.05 mg/Kg PO QD seven days): No
Stereotypy count, WT-Veh vs. KO2-Compound: Summary (Fmr1 KO2 mice; 0.05 mg/Kg PO QD seven days): ns
Stereotypy count, WT-Veh vs. KO2-Compound: Significant? (Fmr1 KO2 mice; 0.1 mg/Kg PO QD seven days): No
Stereotypy count, WT-Veh vs. KO2-Compound: Summary (Fmr1 KO2 mice; 0.1 mg/Kg PO QD seven days): ns
Effect on stereotypy counts phenotype (FIG. 4) (Fmr1 KO2 mice; 0.05 and 0.1 mg/Kg): reversed
Open field (hyperactivity, total distance traveled), WT-Veh vs. KO1-Compound: Significant? (Fmr1 KO1 mice [1]; 0.01 mg/Kg PO QD seven days): Yes
Open field (hyperactivity, total distance traveled), WT-Veh vs. KO1-Compound: Significant? (Fmr1 KO1 mice [1]; 0.05 mg/Kg PO QD seven days): Yes
Open field (hyperactivity, total distance traveled), WT-Veh vs. KO1-Compound: Significant? (Fmr1 KO1 mice [1]; 0.1 mg/Kg PO QD seven days): No
Open field (hyperactivity, total distance traveled), WT-Veh vs. KO1-Compound: Summary (Fmr1 KO1 mice [1]; 0.1 mg/Kg PO QD seven days): ns
Stereotypy count, WT-Veh vs. KO1-Compound: Significant? (Fmr1 KO1 mice [2]; 0.01 mg/Kg PO QD seven days): Yes
Stereotypy count, WT-Veh vs. KO1-Compound: Significant? (Fmr1 KO1 mice [2]; 0.05 mg/Kg PO QD seven days): No
Stereotypy count, WT-Veh vs. KO1-Compound: Summary (Fmr1 KO1 mice [2]; 0.05 mg/Kg PO QD seven days): ns
Stereotypy count, WT-Veh vs. KO1-Compound: Significant? (Fmr1 KO1 mice [2]; 0.1 mg/Kg PO QD seven days): No
Stereotypy count, WT-Veh vs. KO1-Compound: Summary (Fmr1 KO1 mice [2]; 0.1 mg/Kg PO QD seven days): ns
Effect on repetitive behaviors (stereotypical movements, FIG. 10) (Fmr1 KO1 mice [2]; 0.05 and 0.1 mg/Kg): decreased
Nesting, WT-Veh vs. KO1-Compound: Significant? (Fmr1 KO1 mice [3]; 0.01 mg/Kg PO QD seven days): Yes
Nesting, WT-Veh vs. KO1-Compound: Significant? (Fmr1 KO1 mice [3]; 0.05 mg/Kg PO QD seven days): No
Nesting, WT-Veh vs. KO1-Compound: Summary (Fmr1 KO1 mice [3]; 0.05 mg/Kg PO QD seven days): ns
Nesting, WT-Veh vs. KO1-Compound: Significant? (Fmr1 KO1 mice [3]; 0.1 mg/Kg PO QD seven days): No
Nesting, WT-Veh vs. KO1-Compound: Summary (Fmr1 KO1 mice [3]; 0.1 mg/Kg PO QD seven days): ns
Effect on nesting behavior (FIG. 11) (Fmr1 KO1 mice [3]; 0.05 and 0.1 mg/Kg): rescues poor nesting behavior

From patent publication US12285397B2, “Use of (s)-3-amino-4-(difluoromethylenyl) cyclopent-1-ene-1-carboxylic acid and related compounds, (1S,3S)-3-amino-4-(difluoromethylidene) cyclopentane-1-carboxylic acid and vigabatrin in the treatment of developmental disorders” (Ovid Therapeutics Inc., priority 2018, dated 2025)
